Measurements taken from patent publication US11882836B2, “1-amino-1-cyclopropanecarboxylic acid mixtures and uses thereof” (Valent BioSciences LLC, priority 2020, dated 2024).

Legend:
Format in all cases: in vivo
[1] = test system: Prunus (stone fruit) plants; assay: Bud break and shoot development of Prunus plants, ACC and CAN15 mixtures (Example 4); settings: for Mean FW: harvest
Experimental: (§1) To determine if the mixtures provided unexpected results, the observed combined efficacy (“OCE”) was divided by the expected combined efficacy (“ECE”) wherein the expected ECE is calculated by the Abbott method: ECE=A+B−(AB/100),
If the ratio between the OCE of the mixture and the ECE of the mixture is greater than 1, then greater than expected interactions are present in the mixture.
(§2) To assess the ability of mixtures of the invention to promote and synchronize bud break, these mixtures were applied to Prunus (stone fruit) plants in the greenhouse and examined for bud break (initiation of growth) and subsequent shoot development. ACC, Dormex (50% HC), and 15-0-0 fertilizers (CAN15), and mixtures thereof were each applied individually or sequentially (co-applied) to the shoots of Prunus plants.

[2] = test system: Prunus (stone fruit) plants; assay: Bud break and shoot development of Prunus plants, ACC and CAN17 mixtures (Example 3); settings: for Mean FW: harvest
Experimental: as §1
(§3) wherein ECE is the expected combined efficacy and in which A and B are the speed of bud break relative to control, the number of buds broken per plant relative to control, shoot length relative to control or shoot weight relative to control given by the single active ingredients. If the ratio between the OCE of the mixture and the ECE of the mixture is greater than 1, then greater than expected interactions are present in the mixture. (Gisi, Synergistic Interaction of Fungicides in Mixtures, The American Phytopathological Society, 86:11, 1273-1279, 1996).
as §2, with “Dormex®” for “Dormex”, “17-0-0” for “15-0-0”, “(CAN17),” for “(CAN15),”, “plants. Plants were evaluated for bud break from 4-21 days after treatment.” for “plants.”

Malus (apple) rootstocks = assay: Bud break and shoot development of Malus (apple) rootstocks after shoot application (Example 1); settings: for Average Number of Broken Buds Per Malus Plant at Harvest / Average Number of Broken Nodes Per Centimeter of Shoot at Harvest / Fresh Weight at Harvest / Fresh Weight per Bud at Harvest: 28 days; for Fresh Weight at Harvest / Fresh Weight per Bud at Harvest: Malus
Excerpt: To assess the ability of mixtures of the invention to promote and synchronize bud break, these mixtures were applied to field-grown Malus (apple) rootstocks and examined for bud break (initiation of growth) and subsequent shoot development. ACC, Dormex® (50% HC), 15-0-0 (Erger®) and 17-0-0 fertilizers (CAN17), and mixtures thereof were each applied individually or sequentially (co-applied) to the shoots of potted Malus rootstocks that were pruned to a height of 25 centimeters. Plants were evaluated for bud break at 28 days after treatment.
as §1, §3

[3] = test system: Prunus (stone fruit) plants; assay: Bud break and shoot development of Prunus (stone fruit) plants in the greenhouse (Example 2); settings: for FW (grams): harvest, 28 days
Experimental: as §1, §3
as §2, with “Dormex®” for “Dormex”, “HC), 15-0-0 (Erger®)” for “HC),”, “17-0-0” for “15-0-0”, “(CAN17),” for “(CAN15),”, “plants. Plants were evaluated for bud break at 28 days after treatment.” for “plants.”

N#CN [HC, hydrogen cyanamide, reference compound]
0-100% BB ([1]; HC 1% (v/v)): 6 days
50% BB ([1]; HC 1% (v/v)): 9 days
Mean FW ([1]; HC 1% (v/v)): 3.15 g
0-100% BB ([2]; HC 1% (v/v)): 6 days
50% BB ([2]; HC 1% (v/v)): 9 days
Mean FW ([2]; HC 1% (v/v)): 1.64 g
50% BB (Malus (apple) rootstocks; HC 1% (v/v)): 12 days
Average Number of Broken Buds Per Malus Plant at Harvest (Malus (apple) rootstocks; HC 1% (v/v)): 8.13
Average Number of Broken Nodes Per Centimeter of Shoot at Harvest (Malus (apple) rootstocks; HC 1% (v/v)): 0.325
Fresh Weight at Harvest (Malus (apple) rootstocks; HC 1% (v/v)): 7.99 grams
Fresh Weight per Bud at Harvest (Malus (apple) rootstocks; HC 1% (v/v)): 0.98 grams
50% BB ([3]; HC 1% (v/v)): 7 days
FW (grams) ([3]; HC 1% (v/v)): 4.76 grams

NC1(C(=O)O)CC1 [ACC, 1-amino-1-cyclopropanecarboxylic acid]
0-100% BB ([1]; ACC 100 ppm): 6 days
50% BB ([1]; ACC 100 ppm): 10 days
Mean FW ([1]; ACC 100 ppm): 1.01 g
0-100% BB ([1]; ACC 300 ppm): 5 days
50% BB ([1]; ACC 300 ppm): 10 days
Mean FW ([1]; ACC 300 ppm): 1.46 g
0-100% BB ([1]; ACC 600 ppm): 7 days
50% BB ([1]; ACC 600 ppm): 9 days
Mean FW ([1]; ACC 600 ppm): 2.57 g
0-100% BB ([2]; ACC 100 ppm): 10 days
50% BB ([2]; ACC 100 ppm): 11 days
Mean FW ([2]; ACC 100 ppm): 0.52 g
0-100% BB ([2]; ACC 300 ppm): 13 days
50% BB ([2]; ACC 300 ppm): 10 days
Mean FW ([2]; ACC 300 ppm): 1.84 g
0-100% BB ([2]; ACC 600 ppm): 12 days
50% BB ([2]; ACC 600 ppm): 10 days
Mean FW ([2]; ACC 600 ppm): 1.28 g
50% BB (Malus (apple) rootstocks; ACC 300 ppm): 14 days
Average Number of Broken Buds Per Malus Plant at Harvest (Malus (apple) rootstocks; ACC 300 ppm): 6.13
Average Number of Broken Nodes Per Centimeter of Shoot at Harvest (Malus (apple) rootstocks; ACC 300 ppm): 0.25
Fresh Weight at Harvest (Malus (apple) rootstocks; ACC 300 ppm): 4.34 grams
Fresh Weight per Bud at Harvest (Malus (apple) rootstocks; ACC 300 ppm): 0.66 grams
50% BB (Malus (apple) rootstocks; ACC 1000 ppm): 16 days
Average Number of Broken Buds Per Malus Plant at Harvest (Malus (apple) rootstocks; ACC 1000 ppm): 7.38
Average Number of Broken Nodes Per Centimeter of Shoot at Harvest (Malus (apple) rootstocks; ACC 1000 ppm): 0.30
Fresh Weight at Harvest (Malus (apple) rootstocks; ACC 1000 ppm): 3.05 grams
Fresh Weight per Bud at Harvest (Malus (apple) rootstocks; ACC 1000 ppm): 0.46 grams
50% BB ([3]; ACC 300 ppm): 12 days
FW (grams) ([3]; ACC 300 ppm): 3.95 grams
50% BB ([3]; ACC 1000 ppm): 7 days
FW (grams) ([3]; ACC 1000 ppm): 3.81 grams
